Article PMC5611513, “Structure-Based Prototype Peptides Targeting the Pseudomonas aeruginosa Type VI Secretion System Effector as a Novel Antibacterial Strategy” (Frontiers in Cellular and Infection Microbiology, 2017)
Numbering of substitutions follows the chain as printed. pKd: −log10 of the molar value.

Tests used:
TplEi = target: T1, TplEi (Pseudomonas aeruginosa, UniProt Q9I3K3); assay: Isothermal titration calorimetry (ITC) of TplE peptides with wild type TplEi; assay type: binding; conditions: for pKd: 25°C, 20 mM Tris-HCl pH 8.0, 100 mM NaCl, A peptides (WT) and its mutants, Figure 3D,E; for effect of the mutation on “L” peptide binding to TplEi: result in words, compared to WT peptide
T1 sequence (Q9I3K3 1-380): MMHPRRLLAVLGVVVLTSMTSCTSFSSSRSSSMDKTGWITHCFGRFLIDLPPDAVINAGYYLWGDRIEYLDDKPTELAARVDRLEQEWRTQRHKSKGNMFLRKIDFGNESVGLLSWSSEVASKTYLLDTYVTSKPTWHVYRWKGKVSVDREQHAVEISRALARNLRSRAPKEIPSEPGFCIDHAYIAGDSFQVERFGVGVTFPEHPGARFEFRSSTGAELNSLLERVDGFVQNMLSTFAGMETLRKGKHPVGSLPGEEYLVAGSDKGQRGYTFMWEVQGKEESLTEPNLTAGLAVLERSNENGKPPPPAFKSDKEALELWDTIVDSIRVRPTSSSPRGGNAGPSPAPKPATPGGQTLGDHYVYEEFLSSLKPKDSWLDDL
Procedure: (§1) Isothermal titration calorimetry (ITC) assay was performed with a MicroCalTM iTC200 calorimeter (MicroCal, USA) at 25°C; both the protein and peptides were dissolved with the same buffer (20 mM Tris-HCl, pH = 8.0, 100 mM NaCl). The concentration of TplEi was between 0.03 and 0.04 mM. The concentrations of wild type peptides and mutants were between 1 and 2 mM. Titration was scheduled with 18 consecutive injections of 2 μl of peptide with a 120 s interval between injections, using a stirring rate of 600 rpm. Data acquisition and analysis were performed using MicroCal Origin software (version 7.0).

E. coli BL21 (DE3) = assay: Cell-toxicity assay, spot growth on LB agar; assay type: cell-based, Escherichia coli; conditions: 0.045 mM IPTG, 24 h; for decrease of growth inhibition on expression of mutated “L” peptide: E. coli BL21 (DE3) expressing TplE-TplEi and mutated peptide, compared with “L” peptide
Procedure: Cell-toxicity assay was carried as previously described with minor modification (Jiang et al., [2016]). […] A 2 μl bacterial dilution was spotted onto LB agar plate containing 0.045 mM IPTG. Images were taken after 24 h growth.
(A) Diagrams of TplE, TplE-TplEi and “L” peptide expressing constructs. Expression of vector sequence and “L” peptide mutant with the PelB signal peptide was used as a control. […] A 10-fold serial dilution of overnight culture was spotted on LB agar plates from left to right. The experiments were performed at least 3 times.

TplEi R266A mutant [1] = target: T2, TplEi R266A mutant (Pseudomonas aeruginosa, UniProt Q9I3K3, R226A, form not given); assay: ITC of the “L” peptide with TplEi mutant R266A; assay type: binding; conditions: TplEi R266A vs wild type TplEi
T2 sequence (Q9I3K3 1-380 R226A): T1 sequence (Q9I3K3 1-380) with R226A
Procedure: as §1
(§2) To further elucidate the mechanism underlying the “L” peptide binding, we mutated several key residues of TplEi interacting with the “L” peptide, and measured the binding affinity of the “L” peptide to these TplEi mutants using ITC. The side chain of K100 of the “L” peptide forms four hydrogen bonds with TplEi, among which only one involves side chain interaction with S215 of TplEi, whereas the other three involve backbone atoms. […] Similarly, we prepared TplEi mutants E219A and R266A, respectively. E219 forms a hydrogen bond with backbone NH group of K100 of the “L” peptide, and R266 forms two hydrogen bonds with the carbonyl group of W96 of the peptide (Figure 3A).

TplEi R266A mutant [2] = target: T3, TplEi R266A mutant (Pseudomonas aeruginosa, UniProt Q9I3K3); assay: ITC of the “L” peptide with TplEi mutant R266A; assay type: binding; conditions: 25°C, TplEi R266A, Figure S3
T3 sequence (Q9I3K3 1-380 R226A): T1 sequence (Q9I3K3 1-380) with R226A
Procedure: as §1, §2

TplEi S215A mutant = target: T4, TplEi S215A mutant (Pseudomonas aeruginosa, UniProt Q9I3K3, S215A); assay: ITC of the “L” peptide with TplEi mutant S215A; assay type: binding
T4 sequence (Q9I3K3 1-380 S215A): T1 sequence (Q9I3K3 1-380) with S215A
Procedure: as §1, §2

TplEi E219A mutant = target: T5, TplEi E219A mutant (Pseudomonas aeruginosa, UniProt Q9I3K3, E219A); assay: ITC of the “L” peptide with TplEi mutant E219A; assay type: binding
T5 sequence (Q9I3K3 1-380 E219A): T1 sequence (Q9I3K3 1-380) with E219A
Procedure: as §1, §2

Ac-DDLFASAGALWTWAWRGPKARQELLKAEQVEVDD-NH2 [I88A]
pKd (TplEi): 5.32

Ac-DDLFASIGAAWTWAWRGPKARQELLKAEQVEVDD-NH2 [L91A]
pKd (TplEi): 5.43

Ac-DDLFASIGALATWAWRGPKARQELLKAEQVEVDD-NH2 [W92A]
pKd (TplEi): 4.30
decrease of growth inhibition on expression of mutated “L” peptide (E. coli BL21 (DE3)): moderate decreased growth inhibition

Ac-DDLFASIGALWTWAARGPKARQELLKAEQVEVDD-NH2 [W96A]
pKd (TplEi): 7.51
effect of the mutation on “L” peptide binding to TplEi (TplEi): increased binding affinity

Ac-DDLFASIGALWTWAWRAPKARQELLKAEQVEVDD-NH2 [G98A]
pKd (TplEi): 5.88

Ac-DDLFASIGALWTWAWRGAKARQELLKAEQVEVDD-NH2 [P99A]
pKd (TplEi): 7.24
effect of the mutation on “L” peptide binding to TplEi (TplEi): increased binding affinity

Ac-DDLFASIGALWTWAWRGPKARQELLKAEQVEVDD-NH2 [“L” peptide]
growth inhibition on expression of the peptide (E. coli BL21 (DE3); E. coli BL21 (DE3) expressing periplasmic-targeted TplE-TplEi and peptide, 10-fold serial dilutions, at least 3 experiments): significant TplE-dependent growth inhibition
decreased binding affinity (TplEi R266A mutant [1]): 375 folds
pKd (TplEi R266A mutant [2]): 4.33
pKd (TplEi S215A mutant; 25°C, TplEi S215A, Figure S3): 5.11
reduced binding affinity comparing to wild type TplEi (TplEi S215A mutant; TplEi S215A vs wild type TplEi): ~62 folds
pKd (TplEi E219A mutant; 25°C, TplEi E219A, Figure S3): 4.45
decreased binding affinity (TplEi E219A mutant; TplEi E219A vs wild type TplEi): 284 folds

DDLFASIGALWTWAWRGPEARQELLKAEQVEVDD [K100E]
effect of the mutation on “L” peptide binding to TplEi (TplEi): completely abolished
decrease of growth inhibition on expression of mutated “L” peptide (E. coli BL21 (DE3)): strong
